Source: patent US20110294803A1, “PHOSPHATIDYLINOSITOL-3-KINASE P110 DELTA-TARGETED DRUGS IN THE TREATMENT OF CNS DISORDERS” (priority 2008, published 2011)
“Also recorded” adds a separate entry of the source.

Assays:
ErbB4 mRNA = ErbB4 mRNA expression in hippocampus of rats treated chronically with haloperidol; type: in vivo, rat; conditions: haloperidol 0.08 or 0.6 mg/kg/day i.p. once daily for 28 days
Method: (§1) To explore this hypothesis, rats treated chronically with haloperidol, a standard antipsychotic drug, were tested for PIK3CD expression in the brain. Male Sprague-Dawley rats (weight 250 g) were on a 12-h light/dark cycle (lights on/off 0600 hours/1800 hours) in a temperature-controlled environment and with access to food and water. Rats were randomly assigned to drug treatment groups (8 per dose) and administered intraperitoneal injections of haloperidol (0.08 or 0.6 mg/kg/day) or vehicle (0.02% lactic acid) once daily for 28 days. Haloperidol (20 mg/ml) was prepared in 1% lactic acid, diluted with water, and neutralized with 1M NaOH to obtain pH 5.3. Rats were euthanized 7 h after the last injection. Brains were dissected and frozen at −80° C. PIK3CD, PIK3R3, ErbB4, and ErbB3 mRNA expression was determined in rat hippocampus using methods described above. Association of mRNA expression with haloperidol treatment was analyzed by ANOVA.

PIK3R3 mRNA = PIK3R3 mRNA expression in hippocampus of rats treated chronically with haloperidol; type: in vivo, rat; conditions: haloperidol 0.08 or 0.6 mg/kg/day i.p. once daily for 28 days
Method: as §1

ErbB3 mRNA = ErbB3 mRNA expression in hippocampus of rats treated chronically with haloperidol; type: in vivo, rat; conditions: haloperidol 0.08 or 0.6 mg/kg/day i.p. once daily for 28 days
Method: as §1

PIK3CD mRNA = PIK3CD mRNA expression in hippocampus of rats treated chronically with haloperidol; type: in vivo, rat; conditions: haloperidol 0.08 or 0.6 mg/kg/day i.p. once daily for 28 days, compared to untreated rats; F(2,22)=9.45, p=0.001
Method: as §1

[1] = test system: COMT*dysbindin double knockout mice; experiment: Amphetamine-induced stereotypy in a genetic mouse model of schizophrenia; type: in vivo; conditions: IC87114 0.1 mg/kg i.p. pretreatment, D-amphetamine 1.5 mg/kg i.p.
Text: Subjects. All procedures were approved by the NIMH Animal Care and Use Committee and followed the NIH Guidelines “Using Animals in Intramural Research.” To derive the double knockout mice, the lines of COMT knockout mice and dysbindin knockout mice previously described were used. COMT*dysbindin double knockout mice (COMT−/− dys−/−) were littermates and bred by double heterozygote mating (dCOMT+/−dys+/− with cCOMT+/−dys+/−). Mice were identified by PCR analysis of tail DNA. Mice were group-housed (2-4/cage) in a climate-controlled animal facility (22±2° C.) and maintained on a 12-hr light/dark cycle, with free access to food and water. Testing was conducted in male mice, 7 months old, during the light phase. Experimenters were blind to the genotype during behavioral testing. Mice were handled by the experimenter on alternate days during the week preceding the tests. At least one hour before any test manipulation, mice were habituated in a room adjacent to the testing room.
Stereotypy behavior with IC87114 and Amphetamine Treatment. […] Stereotypy was scored from videotapes by an observer blind to the treatments and genotype conditions of each mouse. […]
Statistical analysis. Results were expressed as mean±standard error of the mean (S.E.M.) throughout. […]

[2] = test system: Human B-lymphoblast cells (LCLs); experiment: NRG1-induced lymphocyte (LCL) migration, Transwell assay; type: cell-based; conditions: 0.1 uM, 60 min preincubation; LCLs of normal individuals and patients with schizophrenia; NRG-1 200 ng/ml, 4 hours
Method: The cellular phenotype is migration of lymphocytes to the chemoattractant, Neuregulin (NRG1), a key regulator of brain development. NRG1 induced LCL migration is diminished in patients with schizophrenia.
Human B-lymphoblast cells were cultured in RPMI 1640 without L-Glutamine medium (Quality Biological, Inc.) supplemented with 15% fetal bovine serum (FBS), 1% Penicillin-streptomycin, and 2% L-Glutamine in a 5% CO2 incubator at 37° C. Prior to performing migration assay, cells were incubated for 16-18 hours in the same culture, lowering the concentration of FBS to 2%. […] Following incubations, cells were seeded into the top chamber of the HTS […] Transwell®-96 Cell Migration plate (Corning) at 4×10^5 cell/well concentration in a 50 μl volume. NRG-1 serum free RPMI solution with antibiotics and L-Glutamine supplements (NRG-1 200 ng/ml; 160 μl) was added to the bottom chamber and incubated for 4 hours at 37° C. 75 μl of the bottom chamber fraction was collected and combined with 25 μl of cyquant/lysis buffer reagent (according to Invitrogen protocol) for 15 min at RT and in the dark, and then read with a Wallac 1420 VICTOR3 multilabel plate reader under standard fluorescein (485 nm/535 nm, 1.0 s) protocol.

C57BL/6J mice [3] = experiment: Baseline locomotor activity in open field; type: in vivo, mouse; conditions: IC87114 0.1 mg/kg i.p., male C57BL/6J mice, no amphetamine
Method: (§2) Subjects. C57BL/6J mice were purchased from The Jackson Laboratory at 8 weeks old. All mice were group-housed (4/cage) in a climate-controlled animal facility (22±2° C.) and maintained on a 12-hr light/dark cycle, with free access to food and water. Testing was conducted in male mice, at ages 2-3 months, during the light phase of the circadian cycle. Mice were handled by the experimenter on alternate days during the week preceding the tests. At least one hour before any test manipulation, mice were habituated in a room adjacent to the testing room.
Mice were tested on day 1 in an experimental apparatus consisting of four Plexiglas Digiscan automated open fields (Accuscan; 42×42×30 cm dimensions). One red light (5±2 lux) was placed overhead, evenly illuminating each open field. Each apparatus contained photobeam sensors to measure the exploratory and locomotor activity of the mice. During the first 10-minute session, mice were placed in the empty open field and allowed to explore the arena. […] They were then place back in the same open field for an additional 75 minutes. All sessions were videotaped. […] “Vehicle-treated” mice were injected with the same volume of 0.25% DMSO in saline physiological saline.
Statistical analysis. Results were expressed as mean±standard error of the mean (S.E.M.) throughout. Student T-test, Two- or Three-Way analysis of variance (ANOVA) was used. […]

[4] = Passive blood-brain barrier permeability analysis by partitioning (Analiza); type: physicochemical
Method: For compounds to be clinically useful to treat CNS disorders, they should penetrate the blood-brain barrier (BBB). […] The degree of BBB penetration is measured as the ratio of the steady-state concentrations of the drug in the brain and in the blood, expressed as log(Cbrain/Cblood) or log BB. Compounds with logBB>0.3 (i.e. Cbrain/Cblood>2.0) cross the BBB readily. From these studies, IC87114 represents one of these compounds.
BBB analysis was performed using Analiza assays: Based upon a method described previously, a combination of two descriptors representing the lipophilicity (as measured by octanol-buffer partitioning, logD7.4) and relative hydrophobicity (as measured by aqueous two-phase partitioning (ATPPS), N(CH2)) of organic compounds was used to determine if that compound will permeate the blood-brain barrier.
Sample Preparation: One sample was received as 10 mM stock solutions in Dimethyl sulfoxide (DMSO) frozen on dry ice in a microtube. […]
Partitioning Experiments: Partitioning in an aqueous dextran-polyethylene glycol (Dex-PEG) two-phase system containing 0.15M NaCl in 0.01M sodium phosphate buffer at pH 7.4 was performed with an Automated Signature Workstation (Analiza, Inc. Cleveland, Ohio). […] Relative Hydrophobicity (N(CH2)) is then calculated from this partition coefficient. […] Relative Hydrophobicity (N(CH2) is then calculated from this partition coefficient. […]

C57BL/6J mice [5] = experiment: Amphetamine-induced locomotor activity in open field, normal mice; type: in vivo, mouse; conditions: IC87114 0.1 mg/kg i.p. pretreatment; D-amphetamine 0.75 or 1.5 mg/kg i.p.; male C57BL/6J mice
Method: as §2
On day 3, mice were tested in the same experimental apparatus and conditions as on day 1. […] During the first 10-minute session mice were placed in the same empty open field as day 1. Immediately after, mice were removed from the field and given an injection of D-amphetamine sulphate (either 0.75 mg/kg or 1.5 mg/kg, i.p., Sigma-Aldrich, St. Louis, Mo., USA). They were then placed back in the same open field and allowed to explore for an additional 75 minutes. Amphetamine was dissolved in physiological saline and injected in a volume of 10 ml/kg.
Statistical analysis. Results were expressed as mean±standard error of the mean (S.E.M.) throughout. Student T-test, Two- or Three-Way analysis of variance (ANOVA) was used. Post-hoc analyses for individual group comparisons employed Newman-Keuls analyses.

Row | SMILES | ErbB4 mRNA expression in rat hippocampus (ErbB4 mRNA) | PIK3R3 mRNA expression in rat hippocampus (PIK3R3 mRNA) | ErbB3 mRNA expression in rat hippocampus (ErbB3 mRNA) | expression of PIK3CD mRNA in rat hippocampus (PIK3CD mRNA) | amphetamine-induced stereotypy [1] | LCL migration in response to NRG-1 stimulation [2] | baseline locomotor activity (distance traveled during 75 minutes) (C57BL/6J mice [3]) | logBB (log(Cbrain/Cblood)) ([4]; calculated from partitioning data) | Kp ([4]; not told, calculated from log D (octanol-buffer, pH 7.4) and N(CH2) (aqueous two-phase partitioning), read-out: Cbrain/Cblood) | amphetamine-induced hyperlocomotion (distance traveled during 75 minutes) (C57BL/6J mice [5])
1 | O=C(CCCN1CCC(O)(c2ccc(Cl)cc2)CC1)c1ccc(F)cc1 [haloperidol] | did not affect | did not affect | did not affect | decreases expression of PIK3CD mRNA | – | – | – | – | – | –
2 | Cc1ccccc1-n1c(Cn2cnc3c(N)ncnc32)nc2cccc(C)c2c1=O [IC87114] | – | – | – | – | dramatically reduces amphetamine-induced stereotypy; also recorded: diminished | Rescues a Cellular Phenotype Related to Schizophrenia; also recorded: significantly improve LCL migration | no effect on baseline locomotor activity; also recorded: without affecting baseline behavior; also recorded: did not show any drug-treatment effect | > 0.3 | > 2 | reduces amphetamine-induced hyperlocomotion; also recorded: reduces amphetamine induced locomotor abnormalities; also recorded: blocked the amphetamine-induced increase in locomotor activity
